According to patent publication US20220168299A1, “PHARMACEUTICAL COMPOSITION COMPRISING TBN, OR SALT OR HYDRATE THEREOF, AND PREPARATION METHOD THEREOF” (GUANGZHOU MAGPIE PHARMACEUTICALS CO., LTD., priority 2019, published 2022):
Where “and” joins values, the source holds several entries; their conditions need not be identical. Identical values can stand only once. Like-named read-outs stand apart in the source and are kept apart here.

Columns and labels:
[1] = Bioavailability test: pharmacokinetic study of TBN (API) and enteric-coated tablets in beagle dogs; format: in vivo; settings: 175 mg, oral gavage; for MRT last: read-out: MRT (0-t); for Vd/F: read-out: Vz/F
Description: (10) Bioavailability test: Pharmacokinetic study of TBN (API) and enteric-coated tablets in beagle dogs
6 beagle dogs were randomly divided into 2 groups, each group having 3 animals. Each test animal was given with TBN (API) at a dosage of 175 mg, or 1 enteric-coated tablet with a specification of 175 mg prepared following the method in Example 17 by oral gavage. The blood sample was collected at various times (0.08, 0.25, 0.5, 1, 1.5, 2, 4, 8, 12, and 24 h), and analyzed by LC-MS/MS. A drug concentration-time curve was plotted to calculate the pharmacokinetic parameters.

[2] = Pharmacokinetic study of TBN enteric-coated tablets (Example 25 method) and intravenous TBN in beagle dogs; format: in vivo
Description: (11) Pharmacokinetic study of TBN enteric-coated tablets prepared following the method described in Example 25
24 beagle dogs (male:female 1:1) were randomly divided into 4 groups (each group having 3 female and 3 male animals). Animals in group A were injected intravenously with a TBN (API) solution at a dosage of 6 mg·kg^−1, and animals in groups B and D were respectively given with TBN enteric-coated tablets at a dosage of 100 and 900 mg·animal^−1 by oral gavage. Blood was taken from the animals in group A before and 0.083, 0.25, 0.5, 1, 2, 4, 6, 8 and 24 h after administration; and blood was taken from the animals in group B and D before and 0.25, 0.5, 1, 2, 4, 6, 8, 12 and 24 h after administration. Animals in group C were given TBN enteric-coated tablets at a dosage of 300 mg·animal^−1 for seven consecutive days. Blood was taken from the animals in group C before and 0.25, 0.5, 1, 2, 4, 6, 8, 12 and 24 h after the first and seventh administration and before and 2 h after the second to sixth administration.
Detection and analysis by LC-MS/MS were performed and the pharmacokinetic parameters were calculated.

[3] = beagle, dog, blood, po, Average of 3 animals
[4] = beagle, dog, blood, po, individual animal
[5] = individual animal, listed as TBN (API)
[6] = both sexes, dog, blood, beagle dogs, intravenous 6 mg · kg^−1, Mean

AUC(0-inf) [1, 3]: 9580 ng·h/mL
AUC(0-t) ([1]; beagle, dog, blood, po, Average of 3 animals, read-out: AUC(0-t)): 9580 ng·h/mL
Cmax ([1]; beagle, dog, blood, po, Average of 3 animals, read-out: Cmax): 10100 ng/mL
MRT last [1, 3]: 49.8 min
Vd/F [1, 3]: 1.22 L/kg
MRT last [1, 4]: 37.2 min
Vd/F [1, 4]: 1.39 L/kg
Tmax ([1]; dog, blood, individual animal): 15 min
CLz/F ([1]; Average of 3 animals): 30.2 mL/min/kg
T½z ([1]; Average of 3 animals): 31.2 min
MRT (0-t) [1, 5]: 53.4 min and 58.8 min
T½z [1, 5]: 22.8 min and 29.4 min and 42.6 min
AUC(0-inf) [2, 6]: 3560 ng·h/mL
C0 [2, 6]: 12100 ng/mL
clearance [2, 6]: 29.1 mL/min/kg
half-life [2, 6]: 17.5 min
MRT inf ([2]; both sexes, dog, blood, beagle dogs, intravenous 6 mg · kg^−1, Mean, read-out: MRT0-inf): 17.9 min
Vd ([2]; both sexes, dog, blood, beagle dogs, intravenous 6 mg · kg^−1, Mean, read-out: VDSS): 0.503 L/kg
difference in exposure levels (C0, AUC0-t) between male and female beagle dogs ([2]; intravenous administration): no significant difference
SMILES: Cc1nc(C)c(/C=[N+](\[O-])C(C)(C)C)nc1C [TBN, (cis)-2-methyl-N-[(3,5,6-trimethylpyrazin-2-yl)methylene)2-propylamine oxide]
AUC (0-∞) [1, 5]: 5294.6 ng·h/mL and 6935.3 ng·h/mL and 16503.3 ng·h/mL
AUC(0-t) [1, 5]: 5290.7 ng·h/mL and 6935.2 ng·h/mL and 16503.2 ng·h/mL
CLz/F [1, 5]: 42.8 mL/min/kg and 33.7 mL/min/kg and 14 mL/min/kg
Cmax [1, 5]: 7280.25 ng/mL and 7291.11 ng/mL and 15646.14 ng/mL
